Data from the supplement of paper PMC10307832.

Key:
Assay in all cases: relative viability (nuclei count vs DMSO), 5 days (fraction); higher = more cells survive
[1] = compound: O=C(CCCCCCNC(=O)c1cnc(N(c2ccccc2)c2ccccc2)nc1)NO [Ricolinostat] + CC(=O)c1c(C)c2cnc(Nc3ccc(N4CCNCC4)cn3)nc2n(C2CCCC2)c1=O [Palbociclib] (partner 0.5 µM)
In short: (§1)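 Relative viability divides the nuclei count in treated wells by that in vehicle wells. Lung cancer cell lines were seeded in 1536-well plates, dosed by pin tool the next day, and fixed and stained after 5 days in one step with final 0.05% Triton X-100, 1% formaldehyde and 1 ug/ml Hoechst. Dosing was a single drug or a fixed anchor-drug dose plus five library-drug doses (not always all listed) in √10 steps, and values are medians of duplicate plates imaged at 4×.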

TGX 221 + Lapatinib = compound: CC1=CN2C(=O)C=C(N=C2C(=C1)C(C)NC3=CC=CC=C3)N4CCOCC4 [TGX 221] + CS(=O)(=O)CCNCc1ccc(-c2ccc3ncnc(Nc4ccc(OCc5cccc(F)c5)c(Cl)c4)c3c2)o1 [Lapatinib] (partner 2 µM)
In short: as §1

[2] = compound: C1=CC=C(C(=C1)C2=CC=C(C=C2)C3=CSC4=C3C(=C(C(=O)N4)C#N)O)O + CCNC(=O)c1noc(-c2cc(C(C)C)c(O)cc2O)c1-c1ccc(CN2CCOCC2)cc1 [Luminespib] (partner 0.01 µM)
In short: as §1

[3] = compound: C1=CC=C(C(=C1)C2=CC=C(C=C2)C3=CSC4=C3C(=C(C(=O)N4)C#N)O)O + CC(=O)c1c(C)c2cnc(Nc3ccc(N4CCNCC4)cn3)nc2n(C2CCCC2)c1=O [Palbociclib] (partner 0.5 µM)
In short: as §1

[4] = compound: O=C(CCCCCCNC(=O)c1cnc(N(c2ccccc2)c2ccccc2)nc1)NO [Ricolinostat] + N=C(N)NC(=N)NCCc1ccccc1 [Phenformin] (partner 250 µM)
In short: as §1

How did the relative viability ([1]; first compound 0.253 µM) turn out when NCI-H1792 was run?
The relative viability was 0.635.

What about the relative viability ([1]; first compound 0.8 µM) of the same cell line?
Its relative viability is 0.684.

And the relative viability ([1]; first compound 2.53 µM)?
Its relative viability is 0.742.

And the relative viability (TGX 221 + Lapatinib; first compound 0.08 µM)?
The relative viability was 0.782.

What about the relative viability (TGX 221 + Lapatinib; first compound 0.253 µM) of the same cell line?
The relative viability was 0.983.

What about the relative viability (TGX 221 + Lapatinib; first compound 0.8 µM) of the same cell line?
Its relative viability is 0.814.

And the relative viability (TGX 221 + Lapatinib; first compound 2.53 µM)?
Its relative viability is 0.846.

And the relative viability (TGX 221 + Lapatinib; first compound 8 µM)?
Its relative viability is 0.887.

And the relative viability ([2]; first compound 0.253 µM)?
The relative viability was 0.576.

And the relative viability ([2]; first compound 0.8 µM)?
The relative viability was 0.641.

And the relative viability ([2]; first compound 2.53 µM)?
The relative viability was 0.473.

And the relative viability ([2]; first compound 8 µM)?
Its relative viability is 0.288.

And the relative viability ([3]; first compound 0.253 µM)?
Its relative viability is 0.65.

What about the relative viability ([3]; first compound 2.53 µM) of the same cell line?
The relative viability was 0.895.

And the relative viability ([3]; first compound 8 µM)?
The relative viability was 0.355.

What about the relative viability ([4]; first compound 0.08 µM) of the same cell line?
Its relative viability is 0.29.

What about the relative viability ([4]; first compound 0.253 µM) of the same cell line?
Its relative viability is 0.233.

And the relative viability ([4]; first compound 0.8 µM)?
Its relative viability is 0.178.

And the relative viability ([4]; first compound 2.53 µM)?
The relative viability was 0.245.
